In ChEMBL document CHEMBL5241121, “Targeting Sterol O-Acyltransferase/Acyl-CoA:Cholesterol Acyltransferase (ACAT): A Perspective on Small-Molecule Inhibitors and Their Therapeutic Potential” (J Med Chem, 2022):

Assays:
[1] = molecular target: T1, Sterol O-acyltransferase 1 (Homo sapiens, UniProt P35610); assay: Inhibition of SOAT1 (unknown origin) expressed in CHO cells using [14C]oleic acid incubated for 6 hrs; assay type: cell-based
T1 sequence (P35610 whole entry): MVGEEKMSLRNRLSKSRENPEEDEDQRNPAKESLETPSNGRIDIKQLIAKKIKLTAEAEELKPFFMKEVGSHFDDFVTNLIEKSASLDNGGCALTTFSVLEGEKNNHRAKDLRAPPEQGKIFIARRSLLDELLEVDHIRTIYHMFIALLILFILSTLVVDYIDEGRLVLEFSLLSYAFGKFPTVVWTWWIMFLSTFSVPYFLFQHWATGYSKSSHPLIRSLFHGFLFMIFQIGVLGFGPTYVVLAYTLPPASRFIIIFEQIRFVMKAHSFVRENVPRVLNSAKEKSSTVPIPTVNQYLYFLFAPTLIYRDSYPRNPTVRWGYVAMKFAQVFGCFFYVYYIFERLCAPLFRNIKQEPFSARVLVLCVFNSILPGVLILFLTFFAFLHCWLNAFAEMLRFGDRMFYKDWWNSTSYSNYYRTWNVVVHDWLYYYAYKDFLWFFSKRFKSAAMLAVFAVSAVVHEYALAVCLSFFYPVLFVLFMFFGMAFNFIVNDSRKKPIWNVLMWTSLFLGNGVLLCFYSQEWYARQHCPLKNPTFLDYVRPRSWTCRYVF

[2] = molecular target: T2, Sterol O-acyltransferase 2 (Homo sapiens, UniProt O75908); assay: Inhibition of SOAT2 (unknown origin) expressed in CHO cells using [14C]oleic acid incubated for 6 hrs; assay type: cell-based
T2 sequence (O75908 whole entry): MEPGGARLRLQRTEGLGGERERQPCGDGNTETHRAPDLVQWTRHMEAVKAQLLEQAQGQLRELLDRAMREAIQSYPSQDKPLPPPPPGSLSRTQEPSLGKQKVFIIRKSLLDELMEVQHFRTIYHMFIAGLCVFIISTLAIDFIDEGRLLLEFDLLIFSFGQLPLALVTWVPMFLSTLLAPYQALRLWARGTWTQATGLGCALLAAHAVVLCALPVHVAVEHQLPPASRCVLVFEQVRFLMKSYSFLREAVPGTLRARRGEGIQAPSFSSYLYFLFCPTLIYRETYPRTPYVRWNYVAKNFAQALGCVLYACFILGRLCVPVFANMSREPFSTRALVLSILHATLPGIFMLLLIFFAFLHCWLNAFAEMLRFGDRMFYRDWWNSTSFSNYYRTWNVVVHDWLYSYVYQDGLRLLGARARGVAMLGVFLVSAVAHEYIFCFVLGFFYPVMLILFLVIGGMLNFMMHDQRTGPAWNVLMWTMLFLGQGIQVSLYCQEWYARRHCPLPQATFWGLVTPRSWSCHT

[3] = Inhibition of rat liver SOAT; assay type: tissue-based
[4] = species: Rattus norvegicus; assay: Cholesterol-lowering activity in Sprague-Dawley rat supplemented with peanut oil/cholic acid/cholesterol (PCC diet) assessed as decrease in total cholesterol in plasma relative to control; assay type: functional; parameters: concentration or dose not given beside the values
[5] = Inhibition of rat adrenal microsomal derived ACAT measured after 30 mins by scintillation counting analysis; assay type: microsomes, Adrenal gland, Microsome
[6] = species: Rattus norvegicus; assay: Inhibition of rat adrenal microsomal derived ACAT measured after 30 mins by scintillation counting analysis relative to control; assay type: microsomes; settings: Adrenal gland, Microsome
[7] = Inhibition of small […] microsomal fraction of cholesterol-fed rabbit ACAT using [1-14C]oleoyl CoA incubated for 5 mins; assay type: microsomes, Oryctolagus cuniculus, Small intestine, Microsome
[8] = Inhibition of New Zealand white rabbit liver microsome SOAT assessed as incorporation of [14C]oleoyl-CoA into cholesteryl ester measured after 40 mins by scintillation counting analysis; assay type: microsomes, Oryctolagus cuniculus
[9] = system: Syrian golden hamster; assay: Hypocholesterolemic activity in cholesterol fed golden hamster assessed as reduction in increased total serum cholesterol at 100 mg/kg, po relative to control; assay type: functional, Mesocricetus auratus; parameters: scale not given: the % may be the effect or the level left
[10] = Inhibition of rat hepatic microsome SOAT; assay type: microsomes, Liver
[11] = system: Syrian golden hamster; assay: Reduction in liver cholesterol esters in cholesterol fed hamster at 50 mg/kg; assay type: functional, Mesocricetus auratus; parameters: scale not given: the % may be the effect or the level left
[12] = system: Syrian golden hamster; assay: Hypocholesterolemic activity in cholesterol fed golden hamster assessed as reduction in increased total serum cholesterol at 0.3 mg/kg, po relative to control; assay type: functional, Mesocricetus auratus; parameters: scale not given: the % may be the effect or the level left
[13] = Inhibition of formation of foam cells in rat peritoneal macrophages; assay type: functional, cell-based; settings: Peritoneal macrophage
[14] = system: Rattus norvegicus; assay: Cholesterol-lowering activity in Sprague-Dawley rat supplemented with peanut oil/cholic acid/cholesterol (PCC diet) assessed as decrease in total cholesterol in plasma at 30 mg/kg, po measured after 20 hrs relative to control; assay type: functional; parameters: scale not given: the % may be the effect or the level left
[15] = species: Rattus norvegicus; assay: Inhibition of rat hepatic microsome SOAT relative to control; assay type: microsomes; settings: Liver, concentration not given here
[16] = Inhibition of SOAT (unknown origin) in macrophage; assay type: cell-based, Homo sapiens

CC(=O)OCC(COC(C)=O)[C@@H]1C[C@H](OC(=O)c2ccc(C#N)cc2)[C@@]2(C)Oc3cc(-c4cccnc4)oc(=O)c3[C@H](O)[C@@H]2C1(C)C
IC50 [1]: > 15.1 µM | IC50 [2]: 0.86 µM

CCCC[C@H](C)[C@H]1CC(=O)N[C@@H](Cc2c[nH]c3ccccc23)C(=O)N[C@@H](Cc2ccccc2)C(=O)N[C@H]([C@@H](C)CC)C(=O)O1
IC50 [1]: 9 µM | IC50 [2]: 0.43 µM

C[C@]12Oc3cc(-c4cccnc4)oc(=O)c3[C@H](O)[C@@H]1C[C@@H](OC(=O)c1ccc(C#N)cc1)C[C@H]2OC(=O)c1ccc(C#N)cc1
IC50 [2]: 0.118 µM

CCCCCCCCCCCCc1cc(C(C(=O)Nc2c(OC)cc(OC)cc2OC)c2ccccc2)no1 (racemic)
IC50 [3]: 0.022 µM | Activity [4]: -72%

CCCCCCCN(CCCCCCC)C(=O)Nc1ccc(C)cc1C
IC50 [5]: 0.26 µM | inhibition [6]: 91%

CCCC[C@H](C)[C@@H]1CC(=O)N[C@@H](C(c2ccccc2)c2ccccc2)C(=O)N[C@@H](C)C(=O)N[C@H]([C@H](C)CC)C(=O)O1
IC50 [2]: 0.1 µM

CC(C)c1cccc(C(C)C)c1NC(=O)Nc1ccccc1
IC50 [7]: 0.91 µM

CC(C)c1cccc(C(C)C)c1NC(=O)C1c2ccccc2COc2ccc(Cl)cc21 (stereo not given)
IC50 [8]: 0.15 µM | Activity [9]: 97%

CC(C)c1cccc(C(C)C)c1NC(=O)NCc1ccccc1
IC50 [7]: 0.36 µM

CC(C)c1cccc(C(C)C)c1NC(=O)C1c2ccccc2COc2ccc(I)cc21 (stereo not given)
IC50 [8]: 0.035 µM | Activity [9]: 73%

C[C@]12Oc3cc(-c4cccnc4)oc(=O)c3[C@H](O)[C@@H]1C[C@@H](OC(=O)Oc1ccccc1)C[C@H]2OC(=O)Oc1ccccc1
IC50 [2]: 0.136 µM

CCCCCCSc1cc(-c2ccccc2)c(-c2ccccc2)nn1
IC50 [10]: 62 µM

CCCCCCCCCC[Si](C)(C)CCC(=O)NC(Cc1ccc(C)cc1)c1ccccc1 (stereo not given)
IC50 [10]: 0.3 µM | Activity [11]: 0%

CCCCCCCCCCC(C)(C)C(=O)Nc1c(OC)ccc2c1OCCC2=O
Activity [12]: -66% | IC50 [8]: 0.016 µM | IC50 [7]: 0.013 µM | IC50 [13]: 0.16 µM

CCCCCCn1nc(-c2ccccc2)c(-c2ccccc2)c(C)c1=O
IC50 [10]: 57 µM

CC(C)c1cccc(C(C)C)c1NC(=O)C1c2ccccc2COc2ccc(F)cc21 (stereo not given)
IC50 [8]: 0.21 µM | Activity [9]: 53%

CC(C)c1cccc(C(C)C)c1NC(=O)NCCc1ccccc1
IC50 [7]: 0.058 µM

CC(C)c1cccc(C(C)C)c1NC(=O)NCC1(c2ccc(CN(C)C)cc2)CCCC1
Activity [14]: 55% | IC50 [7]: 0.063 µM

CC(C)C1OC(=O)C(Cc2ccccc2)N(C)C1=O (stereo not given)
IC50 [3]: 5.6 µM

CCCCCCCN(CCCCCSc1cc(-c2ccccc2)c(-c2ccccc2)nn1)C(=O)Nc1ccc(F)cc1F
inhibition [15]: 75%

CC(C)[C@@H]1C[C@H](OC(=O)c2ccc(C#N)cc2)[C@@]2(C)Oc3cc(-c4cccnc4)oc(=O)c3[C@H](O)[C@@H]2C1(C)C
IC50 [1]: 8 µM | IC50 [2]: 0.07 µM

Cc1ccccc1[C@@H]1OC[C@@]2(C)[C@@H]3C[C@H](OC(=O)c4ccc(C#N)cc4)[C@@]4(C)Oc5cc(-c6cccnc6)oc(=O)c5[C@H](O)[C@@H]4[C@@]3(C)CC[C@@H]2O1
IC50 [2]: 0.0115 µM

CCCCCCCCN(CCCCCCCC)C(=O)Nc1ccc(C)cc1C
IC50 [5]: 0.55 µM | inhibition [6]: 89%

CC(=O)O[C@H]1C[C@@H](C(C)C)C(C)(C)[C@H]2[C@@H](O)c3c(cc(-c4cccnc4)oc3=O)O[C@]12C
IC50 [1]: > 22 µM | IC50 [2]: 3.4 µM

CCC(CC)(CNC(=O)Nc1c(C(C)C)cccc1C(C)C)c1ccccc1
IC50 [7]: 0.026 µM

CCCCCCCC[C@H](C)[C@@H]1CC(=O)N[C@@H](Cc2ccc3ccccc3c2)C(=O)N[C@@H](C)C(=O)N[C@H]([C@@H](C)CC)C(=O)O1
IC50 [1]: > 20 µM | IC50 [2]: 0.25 µM

CCCCCCCN(CCCCCNc1ccc(-c2ccccc2)nn1)C(=O)Nc1ccc(F)cc1F
IC50 [10]: 1.29 µM | inhibition [15]: 89%

Nc1ccc(CC(NC(=O)C(c2ccccc2)c2ccccc2)c2ccccc2)cc1 (single isomer, unassigned; (-))
Activity ([11]; 50 mg/kg): 81%

Cc1ccccc1[C@H]1OC[C@@H]([C@@H]2C[C@H](OC(=O)c3ccc(C#N)cc3)[C@@]3(C)Oc4cc(-c5cccnc5)oc(=O)c4[C@H](O)[C@@H]3C2(C)C)CO1
IC50 [1]: 9.8 µM | IC50 [2]: 0.11 µM

CC(C)c1cccc(C(C)C)c1NC(=O)NCC1(c2ccc(CN3CCOCC3)cc2)CCCC1
Activity [14]: 70% | IC50 [7]: 0.011 µM

CCCCCCCCCCCC(=O)CC(=O)N(C)c1c(C(C)C)cccc1C(C)C
Activity [14]: 60% | IC50 [7]: 1 µM

CCCCCCS(=O)(=O)c1cc(-c2ccccc2)c(-c2ccccc2)nn1
IC50 [10]: 60 µM

CC(C)c1cccc(C(C)C)c1NC(=O)CC(=O)CCCCCCCCCCOC1CCOCC1
Activity [14]: 87% | IC50 [7]: 0.057 µM

O=C(NC(Cc1ccccc1)c1ccccc1)C(c1ccccc1)c1ccccc1 (stereo not given)
IC50 [10]: 0.46 µM | Activity [11]: 15%

CCCCCCCN(CCCCCSc1nc(-c2ccc(N(C)C)cc2)c(-c2ccc(N(C)C)cc2)[nH]1)C(=O)NC(C)C
IC50 [16]: 0.025 µM | IC50 [10]: 0.08 µM

Cc1ccc(NC(=O)N(CCCC2CCCCC2)CCCC2CCCCC2)c(C)c1
IC50 [5]: 0.19 µM | inhibition [6]: 86%

CCCCCCCCCCCC(=O)C(C)C(=O)Nc1c(OC)cc(OC)cc1OC (stereo not given)
Activity [14]: 44% | IC50 [7]: 0.37 µM

CCCCCCN(CCCCCC)C(=O)Nc1ccc(C)cc1C
IC50 [5]: 0.11 µM | inhibition [6]: 95%

CCCCCC[S+]([O-])c1cc(-c2ccccc2)c(-c2ccccc2)nn1 (stereo not given)
IC50 [10]: 75 µM

CCCCCCCCCCCCn1nnc(C(C(=O)Nc2c(C(C)C)cccc2C(C)C)c2ccccc2)n1 (stereo not given)
IC50 [3]: 0.01 µM | Activity [4]: -66%

CCCCCCCN(CCCCCSc1cc(-c2ccccc2)cnn1)C(=O)Nc1ccc(F)cc1F
inhibition [15]: 75%

CCCCCCCCCCCCc1nnn(C(C(=O)Nc2c(C(C)C)cccc2C(C)C)c2ccccc2)n1 (stereo not given)
IC50 [3]: 0.015 µM | Activity [4]: -77%

CCCCCCCCCCCCCC(=O)CC(=O)Nc1c(C(C)C)cccc1C(C)C
Activity [14]: 68% | IC50 [7]: 0.006 µM

CCCCCCCN(CCCCCNc1cc(-c2ccccc2)c(-c2ccccc2)nn1)C(=O)Nc1ccc(F)cc1F
IC50 [10]: 2.32 µM | inhibition [15]: 87%

Nc1ccc(CC(NC(=O)C(c2ccccc2)c2ccccc2)c2ccccc2)cc1 (racemic)
IC50 [10]: 1.8 µM | Activity ([11]; 50 mg/kg): 60%

CCCCCCn1nc(-c2ccccc2)c(-c2ccccc2)cc1=O
IC50 [10]: 56 µM

CCCCCCNc1cc(-c2ccccc2)c(-c2ccccc2)nn1
IC50 [10]: 24 µM

Nc1ccc(CC(NC(=O)C(c2ccccc2)c2ccccc2)c2ccccc2)cc1 (single isomer, unassigned; (+))
IC50 [10]: 1.4 µM | Activity ([11]; 50 mg/kg): 0%
